For assay [1], the target named is T1, GLO1 (Homo sapiens, UniProt Q04760).
T1 sequence (Q04760 2-184): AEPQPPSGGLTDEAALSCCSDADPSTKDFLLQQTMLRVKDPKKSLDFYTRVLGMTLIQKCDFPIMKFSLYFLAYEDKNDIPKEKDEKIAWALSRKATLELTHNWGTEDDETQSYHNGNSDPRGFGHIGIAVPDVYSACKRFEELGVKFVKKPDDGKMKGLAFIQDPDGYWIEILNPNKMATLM
Description: fluorescence spectroscopy. In kind it is binding.

Assay [2] deals with T2, GLO1 in PC12 cells (Rattus norvegicus, UniProt Q6P7Q4).
T2 sequence (Q6P7Q4 2-184): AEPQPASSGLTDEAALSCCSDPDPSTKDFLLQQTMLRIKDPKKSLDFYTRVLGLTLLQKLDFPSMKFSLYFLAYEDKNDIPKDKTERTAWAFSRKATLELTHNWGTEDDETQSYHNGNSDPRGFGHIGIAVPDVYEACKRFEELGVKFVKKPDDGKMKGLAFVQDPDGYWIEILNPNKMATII
Description: cellular thermal shift assay. In kind it is cell-based. The settings on record: half-maximal thermal stabilization.

Assay [3] addresses T1, GLO1. Description: fluorescence spectroscopy. In kind it is binding. The settings on record: 298 K, 5 μM GLO1.

Each structure is given as a SMILES string.

Regarding `O=c1cc(-c2ccc(O)c(O)c2)oc2cc(O)cc(O)c12` [luteolin], in assay [1], the Kd – broadly, the concentration at which binding is half-saturated – stood at 47.2 µM. For the same molecule, the EC50 (in general, the concentration needed to bring the measured effect to its halfway point) in assay [2] came to 45.2 µM. Besides, the Ka in assay [3] stood at 21200 L/mol.
